# Laboratory results as given in patent US20260284076A1, “TESTOSTERONE AND DIFLUOROMETHYLORNITHINE COMBINATION THERAPY FOR PROSTATE CANCER” (The Johns Hopkins University, priority 2023, published 2026).
# “Also recorded” adds a separate entry of the source. Counter-ions that a name gives are not always drawn.
# What was measured:
# CRPC = conditions: post-abiraterone, pre-chemotherapy setting; cited from earlier work
# human T lymphocytes = conditions: CD3/CD28-stimulated cells, 24 hours, 5 donors
# Protocol: Protein expression of ODC and AR by western blot of human T cells cultured for 24 hours with vehicle control (EtOH 0.1%), SPA, or enzalutamide (ENZA; 10 μM) in the presence of no stimulation or CD3- and CD28-stimulation with dynabeads. Vinculin is used a loading control. FIG. 22J. Quantification of protein expression of ODC by western blot as per (FIG. 22I), displaying data from independent experiments of 5 different donors with indicated sex. P values by unpaired 2-tailed t test;
# To assess whether AR regulates expression of polyamine synthesis enzymes in cells beyond prostate, we isolated human T lymphocytes from peripheral blood of 5 donors, treated unstimulated or CD3/CD28-stimulated cells with vehicle control, SPA, or the AR inhibitor enzalutamide for 24 hours, and measured ODC.
# [1] = test system: metastatic CRPC, pre-chemotherapy setting; conditions: cited from earlier work
# [2] = test system: asymptomatic patients with CRPC progressing on Abi; test: TRANSFORMER randomized Phase II study, BAT vs. Enza with crossover; format: in vivo, human
# Protocol: The TRANSFORMER study (NCT02286921) was a DOD-sponsored randomized Phase II study designed to compare the efficacy of BAT vs. Enza in asymptomatic patients with CRPC progressing on Abi, FIG. 19A (2). The study was conducted at 17 academic centers across the US. The study was coordinated by the Prostate Cancer Disease Group clinical research team at Johns Hopkins, who performed regulatory oversight, study/site monitoring, and data analyses. From 2015-2018, 195 patients underwent 1:1 randomization to either standard dose Enza (n=101) or BAT (n=94) at 400 mg IM every 28 days. The primary endpoint was clinical/radiographic PFS. At time of progression, patients were given the option to crossover to the alternate therapy. The trial was designed to show a 50% improvement in the primary endpoint for BAT vs. Enza. […] Objective response was 24.4% for BAT and 4.2% for Enza (p=0.067). Best PSA50 was 26.4% for BAT and 25.5% for Enza (p=0.697).
# At time of progression, 46 (49%) of patients on the Enza arm crossed over to receive BAT and 34 (33.7%) crossed over from BAT to receive Enza and were available for analysis. Remarkably, the PSAso response for patients who received Enza after BAT was 72.7% compared to 25.5% for patients receiving Enza immediately after Abi, FIG. 19D. Objective response in the Enza post-BAT patients was 28.6% compared to 4.2% post-Abi, FIG. 19B. […] The logical extension of these findings and the hypothesis of this proposal is that patients are likely to respond again to further repeat cycles of BAT and Enza, but this treatment strategy has yet to be explored in the clinical trial setting.
# [3] = test system: patients with CRPC progressing on Enza (Cohort A) or Abi (Cohort B); format: in vivo, human; conditions: re-exposed to agent progressed on before BAT
# Description: The RESTORE study (NCT02090114) was an NIH sponsored Phase II study designed to assess the safety and efficacy of BAT in patients (n=30 per cohort) with CRPC progressing on Enza (Cohort A) or Abi (Cohort B), FIG. 18A (34,39). The primary endpoint of the first part of the study was to assess PSA response to BAT. Secondary endpoints included objective response, safety, and quality of life. The second part of the study was to determine in BAT could re-sensitize patients to repeat exposure to second line therapy that patients were progressing on prior to receiving BAT. Thus, patients progressing on Enza were re-exposed to Enza after BAT and similarly for Abi. Both arms of this study met the primary endpoint. PSA50 response to BAT was 30% in patient's post-Enza and 18% post-Abi, FIG. 18B. […] Overall duration of response to BAT and duration of response to re-exposure was longer in the post-Enza vs. post-Abi cohort. The PSAso response to re-exposure to Enza was 71% vs. only 21% for patients re-exposed to Abi, FIG. 19B (7). A third cohort was later added (Cohort C) for patients progressing on ADT alone. Overall, 90 patients were treated on this study over a 4-year period (2014-2018).
# CRPC post docetaxel = conditions: post-docetaxel setting; cited from earlier work
# [4] = test system: chronically castrated patients with rising PSA and CRPC; test: Pilot study of BAT with oral etoposide, then second line therapy post-BAT; format: in vivo, human; conditions: post-BAT
# Description: Based on the preclinical results and potential mechanisms for growth inhibition that include androgen-induced double strand breaks and stabilization of AR preventing relicensing, we have conducted a pilot study evaluating the efficacy and safety of pharmacologic doses of testosterone to produce high dose T levels in conjunction with oral etoposide in chronically castrated patients with rising PSA and CRPC (37). Patients who had been continuously castrate for more than one year with minimal metastatic disease burden (≤5 total bone metastases and ≤10 total sites of metastases) and/or rising PSA were eligible. To achieve rapid cycling between high dose and near castrate serum T (i.e., BAT) patients received intramuscular injection of 400 mg testosterone cypionate every 28 days. For the first 3 cycles of therapy patients received BAT plus oral etoposide 100 mg po/day days 1-14 of a 28-day cycle. After 3 cycles PSA response and objective response were assessed. Those patients with a PSA that was declining from peak levels and no objective evidence of disease progression or worsening pain were continued on therapy. Given the toxicity associated with etoposide and the lack of clinical response in an earlier trial (38), patients who responded after 3 cycles of testosterone plus etoposide were continued on testosterone alone based on protocol amendment.
# [5] = test system: MYC in LNCaP and VCaP cells; test: MYC expression by western blot, RT-PCR, RNAseq; format: cell-based, human; conditions: R1881 10 nM, DFMO 5 mM, 96 hours; monohydrochloride, monohydrate
# Description: (§1) FIG. 5A, FIG. 5B, FIG. 5C, FIG. 5D, and FIG. 5E show: FIG. 5A, MYC expression by IHC in a metastatic tumor biopsy from a patient before and after 3 months of BAT. FIG. 5B, Quantification of MYC protein expression from metastatic tumor biopsies from patients before and after 3 months of BAT color-coded by response (non-responder NR; responder R). […] Vinculin was used as a loading control. FIG. 5D, Principal component analysis of RNA and ATAC sequencing of LNCaP cells treated for 5 days with R1881 10 nM (SPA). […] Vinculin was used as a loading control;
# VCaP cells = test: Colony formation (clonal survival); format: cell-based, human; conditions: with or without R1881 0.5 nM, 96 hours, colonies at 14 days; monohydrochloride, monohydrate
# Description: (§2) FIG. 3A. […] Ns, not significant. FIG. 3B. […] Ns, not significant. FIG. 3C. […] P values by ANOVA;
# LNCaP cells [6] = test: Colony formation (clonal survival); format: cell-based, human; conditions: with or without R1881 0.5 nM, 96 hours, colonies at 14 days; monohydrochloride, monohydrate
# Description: as §2
# [7] = test system: hypusinated eIF5A in PCa cell lines; test: Total and hypusinated eIF5A by western blot; format: cell-based, human
# Description: as §1
# FIG. 24A. Schematic highlighting generation of hypusinated eIF5A from spermidine. […] Vinculin is used as a loading control. Representative blots of n=2 independent experiments;
# [8] = cited from earlier work
# LNCaP cells [9] = test: RNAseq of treated LNCaP cells; format: cell-based, human; conditions: 96 hours
# Description: Overlap of differentially expressed transcripts occurring due to treatment as per (FIG. 27A). […] Change in RNA transcript abundance of genes located with the 8q24 topologically associated domain (TAD) in LNCaP cells treated as per (FIG. 27A).
# [10] = test system: AMD1 transcript in LNCaP cells; test: AMD1 transcript stability after actinomycin, RT-PCR; format: cell-based, human
structure (smiles),measurement,setting,value
"CNC(=O)c1ccc(N2C(=S)N(c3ccc(C#N)c(C(F)(F)F)c3)C(=O)C2(C)C)cc1F [Enzalutamide, 4-{3-[4-cyano-3-(trifluoromethyl)phenyl]-5,5dimethyl-4-oxo-2-sulfanylideneimidazolidin-1-yl}-2-fluoro-N-methylbenzamide]",median rPFS,CRPC,≤ 6 months
same,ODC protein,human T lymphocytes,decreased ODC in all donors
same,"hazard ratio, overall survival vs placebo",[1]; 95% CI 0.60 to 0.84,0.71
same,median overall survival,"[1]; PREVAIL, enzalutamide group",32.4 months
same,>50% decline PSA (%),[1]; PREVAIL,78%
same,PSA PFS,[1]; PREVAIL,11.2
same,TIP (m),[1]; PREVAIL,20 m
same,PSA50 response,"[2]; Enza after BAT (crossover), listed as Enza",72.7%
same,PSA50 response,"[2]; Enza after BAT (crossover), listed as enzalutamide",78%
same,Time to PSA progression,"[2]; Enza immediately post-Abi, without prior BAT",3.8 months
same,Objective response,[2]; Enza post-BAT,28.6%
same,Time to PSA progression,[2]; Enza post-BAT,10.9 months
same,overall survival,[2]; enzalutamide after prior BAT,37 months
same,overall survival,[2]; enzalutamide without prior BAT,29 months
same,PSA50 response,"[2]; initial treatment immediately after Abi, no prior crossover, listed as Enza",25.5%
same,PSA50 response,"[2]; initial treatment immediately after Abi, no prior crossover, listed as enzalutamide",25%
same,fold increase in time to PSA progression on Enza,[2]; post-BAT vs immediately post-Abi,~3 fold
same,clinical/radiographic PFS,[2]; randomized arms,5.72 m
same,Objective response,"[2]; randomized arms, post-Abi",4.2%
same,PSA50 response to re-exposure (re-challenge) post-BAT,[3],71%
same,improvement in survival,CRPC post docetaxel,approximately 5 months
same,patients with >50% PSA decline on second line therapy,[4],3/4
same,PSA decline upon re-challenge,[4]; agent previously progressed on,53.2%
"NCCCC(N)(C(=O)O)C(F)F (stereo not shown) [DFMO, 2-(difluoromethyl)-ornithine, monohydrochloride, monohydrate]",MYC expression,[5],reduced; also recorded: enhances downregulation of MYC by SPA
same,clonal survival / colony formation,VCaP cells,inhibited clonal survival to a greater extent in R1881-treated cells than vehicle control-treated cells; also recorded: decreased colony formation
same,clonal survival / colony formation,LNCaP cells [6],decreased colony formation
same,eIF5A hypusination,[7],marked reduction
same,side-effects of high doses,[8]; high doses,reversible ototoxicity and myelosuppression
same,chemoprevention trials of breast and cervix cancer,"[8]; human, in vivo",negative
same,doses not consistently associated with ototoxicity and myelosuppression,"[8]; human, in vivo",less than 1 g/m2/d
same,prostate polyamine levels and prostate growth,[8]; over one year,can reduce prostate polyamine levels and the rate of growth of the prostate
same,differentially expressed transcripts vs VEH,LNCaP cells [9],fewer
same,half-life of AMD1 transcript,[10]; 96 hours treatment then actinomycin 5 μg/mL,> 8 h
same,stability of AMD1 transcript,"[10]; monohydrochloride, monohydrate",markedly increased stability; also recorded: stabilizes
